Several values for one entry are separate records, joined by “and”; a condition that tells them apart may be missing. Equal entries are not always repeated. Entries after “also recorded” stand apart in the source; their conditions may differ.
How the values were obtained:
[1] = system: L. infantum promastigotes; details: cited from earlier work; for IC50: read-out: IC50 against L. infantum promastigotes
[2] = system: L. infantum MHOM/TN/80/IPT1 promastigotes; assay: L. infantum promastigotes viability assay (MTS); type: cell-based, Leishmania infantum; details: 72 h; for IC50 / inhibition at 20 µM: Leishmania infantum; for IC50: scalar dilutions 2:3 from 20 to 1.17 µM, mean (95% CI); for inhibition at 20 µM / Inhibition of L. infantum at 20 µM (%): single dose 20 µM
Description: (§1) Finally, eighteen compounds were first screened for efficacy against L. infantum MHOM/TN/80/IPT1 promastigotes at a single dose of 20 µM for 72 hours.
(§2) L. infantum MHOM/TN/80/IPT1 (WHO international reference strain) was purchased from ATCC (ATCC® 50134™) and was cultured in Evans's Modified Tobie Medium (EMTM) at 26–28 °C. To test the compounds, parasites were resuspended in RPMI-PY medium as described previously. The human monocytic cell line THP-1 (ECACC 88081201) was cultured in RPMI-1640 medium supplemented with 10% heat-inactivated Fetal Bovine Serum (FBS), 100 μg/ml streptomycin, […] and maintained in a humidified incubator at 37 °C and 5% CO2. All the cell culture reagents were purchased from Sigma-Aldrich (St. Louis, MO, USA).
Late log/stationary phase L. infantum promastigotes were resuspended in RPMI-PY medium at a density of 2.5×10^6 parasites/mL in 96-well plates (100μL/well). The anti-parasitic activity of the eighteen compounds of the library was initially investigated at a single dose of 20 μM for 72 h at 26 °C. […] Not treated parasites were included as negative control. As positive control, the anti-leishmanial drug miltefosine (Sigma-Aldrich, Milan, Italy) was used. Each condition was carried out in duplicate. To evaluate the promastigotes viability, the CellTiter 96H Aqueous Non-Radioactive Cell Proliferation Assay (Promega), based on the ability of viable cells to convert a soluble tetrazolium salt [3-(4.5-dimethylthiazol-2-yl)-5-(3-carboxymethoxy-phenyl)-2-(4-sulfophenyl)-2H-tetrazolium. MTS] to a formazan product, was performed. To this end, 20 μL of MTS/PMS (phenazinemethosulfate, Sigma-Aldrich) was added to 100 μL of culture medium and incubated at 26°C until formazan production. Absorbance was recorded on a Microplate Reader (Infinite® F50 Plus, Tecan) at 492 nm. The IC50 values were calculated using nonlinear regression curves in GraphPad Prism 8.0 (GraphPad Software,Inc., San Diego, CA). The equation used for data fitting was Y= 100/(1 + 10∧((Log IC50 −X)*HillSlope)) (hillslope not constrained), where X is the log of concentration and Y is the normalized response. […]

[3] = system: intracellular L. infantum amastigotes; assay: Anti-amastigote assay on infected THP-1 cells; type: cell-based, Leishmania infantum; details: 2 µM, 72 h treatment, differentiated THP-1 infected 24 h
Description: Figure 2 Effect of 3ca, 3af, and 3aq on intracellular L. infantum amastigotes. Differentiated THP‐1 cells were infected for 24 hours at 37°C; then, the different compounds were added at 2 µM, and the efficacy on intracellular amastigotes was calculated after 72 hours of treatment. Miltefosine was used as a positive control. (A) Percentages of infection are presented as mean ± SD. Ordinary one‐way ANOVA with Dunnett's multiple comparisons test. *p ≤ 0.05, **p ≤ 0.01 *** p ≤ 0.001. (B) Representative merged images showing THP‐1 cells stained with Hoechst dye (blue) and Leishmania amastigotes stained with CFSE (green).
The activity of compounds 3af, 3ca, and 3aq against intracellular amastigotes was evaluated in THP-1 infected cells. Briefly, THP-1 cells were seeded in a 12-well plate with a density of 3 × 10^5 cells/well and, to induce differentiation into macrophage-like cells, were treated with 20 ng/mL phorbol myristic acid (PMA) for 48 h. After differentiation, cells were infected for 24 h with L. infantum MHOM/TN/80/IPT1 promastigotes stained with carboxyfluorescein succinimidyl ester (eBioscience™ CFSE, Invitrogen) as described in reference, with a parasite-to-cell ratio of 10:1. Non-internalized promastigotes were then removed through medium replacement, and infected cells were treated with 3af, 3ca, and 3aq or with the positive control miltefosine for 72 h at concentrations of 2, 10, and 20 μM. To monitor the infection, cells were washed, formaldehyde/methanol fixed, stained with Hoechst dye, and observed with a fluorescence microscope at 5X or 10X magnification. For each field, two images were acquired: one with excitation at 340-390 nm (for Hoechst dye) and the other with excitation at 460-495 nm (for CFSE). Automated cell counting of single-color images was performed with ImageJ software to monitor the rate of infection, which was determined by normalizing the amastigote count from each green (CFSE) image to the THP-1 cell count from the corresponding blue (Hoechst) image. At least 500 THP-1 cells were counted for each condition. […]

THP-1 cells = assay: Evaluation of cytotoxicity on THP-1 cells (MTS); type: cell-based, human; details: for Cytotoxicity on THP‐1 (100, 20, 4 µM) (%): 72 h, PMA-differentiated THP-1; for SI (Selectivity index = CC50/IC50): CC50 THP-1 (72 h) / IC50 L. infantum promastigotes (72 h)
Description: as §1, §2
(§3) The cytotoxicity of the compounds was assessed on THP-1 cells seeded at a density of 5 × 10^5 cells per mL, 100μL/well in a 96-well plate and treated for 72 h with 20 ng/mL phorbol myristic acid (PMA) to induce differentiation into macrophages like cells. After cell adhesion to the plate, each molecule was tested at 4, 20 and 100 μM for 72 h at 37 °C.
(§4) Three selected compounds were further evaluated at different concentration, obtained from scalar dilutions 1:2 (from 100 µM to 3.12 μM) for 72 h at 37°C. The negative control (untreated THP-1 cells) and the positive control (miltefosine) were included in each experiment. Each condition was carried out in duplicate. To evaluate the compounds cytotoxicity, the CellTiter 96H Aqueous Non-Radioactive Cell Proliferation Assay (Promega), was used as described before. […]

[4] = Evaluation of cytotoxicity on THP-1 cells (MTS); type: cell-based, human; details: human; 72 h, scalar dilutions 1:2 from 100 to 3.12 µM; mean (95% CI); read-out: THP‐1 CC50 (µM) (95% CI)
Description: as §1, §2, §3, §4

[5] = target: L. donovani DNA topoisomerase I; set-up: method as in PMID 17922678; details: read-out: IC50 (DNA topoisomerase I poison); cited from earlier work
L. donovani = system: L. donovani; set-up: method as in PMID 23517732; details: read-out: IC50 against L. donovani; cited from earlier work
[6] = system: human macrophage‐type THP‐1 cell; set-up: method as in PMID 38870204; details: cited from earlier work
mammalian cells = system: mammalian cells; set-up: method as in PMID 34984300; details: cited from earlier work
Leishmania infection = system: Leishmania infection; set-up: method as in PMID 38870204; details: mouse infection model; cited from earlier work
[7] = set-up: method as in PMID 38870204; details: cited from earlier work

NCC(c1c[nH]c2cc(Br)ccc12)c1c[nH]c2cc(Br)ccc12 [1a, 2,2‐bis(6‐bromo‐1H‐indol‐3‐yl) ethanamine]
Activity against L. infantum [1]: active

C=Cc1ccc(-c2ccc3c(C(CN)c4c[nH]c5cc(-c6ccc(C=C)cc6)ccc45)c[nH]c3c2)cc1 [3af, 2,2-bis(6-(4-vinylphenyl)-1H-indol-3-yl)ethan-1-amine]
IC50 [2]: 1.1 µM
inhibition at 20 µM [2]: > 98%
Inhibition of L. infantum at 20 µM (%) [2]: 98.7%
Effect on infection (intracellular amastigotes) [3]: significant reduction in the infection; also recorded: significant activity
Cytotoxicity on THP‐1 (100, 20, 4 µM) (%) (THP-1 cells; 4 µM): −14%
Cytotoxicity on THP‐1 (100, 20, 4 µM) (%) (THP-1 cells; 20 µM): 97%
Cytotoxicity on THP‐1 (100, 20, 4 µM) (%) (THP-1 cells; 100 µM): 78%
SI (Selectivity index = CC50/IC50) (THP-1 cells): 21.8
CC50 at 72 h [4]: 24 µM

NCC(c1c[nH]c2cc(-c3cccc4[nH]ccc34)ccc12)c1c[nH]c2cc(-c3cccc4[nH]ccc34)ccc12 [3aq, 2,2-di(1H,1'H-[4,6'-biindol]-3'-yl)ethan-1-amine]
IC50 [2]: 2.8 µM
inhibition at 20 µM [2]: 96.9%
Effect on infection (intracellular amastigotes) [3]: significant reduction in the infection; also recorded: significant activity
Cytotoxicity on THP‐1 (100, 20, 4 µM) (%) (THP-1 cells; 4 µM): −16%
Cytotoxicity on THP‐1 (100, 20, 4 µM) (%) (THP-1 cells; 20 µM): 72.9% and 73%
Cytotoxicity on THP‐1 (100, 20, 4 µM) (%) (THP-1 cells; 100 µM): 89%
SI (Selectivity index = CC50/IC50) (THP-1 cells): 5.2
CC50 at 72 h [4]: 14.6 µM

NCC(c1c[nH]c2c(-c3ccccc3)cccc12)c1c[nH]c2c(-c3ccccc3)cccc12 [3ca, 2,2-bis(7-phenyl-1H-indol-3-yl)ethan-1-amine]
IC50 [2]: 1.7 µM
inhibition at 20 µM [2]: > 98%
Inhibition of L. infantum at 20 µM (%) [2]: 98.0%
Effect on infection (intracellular amastigotes) [3]: significant reduction in the infection; also recorded: significant activity
Cytotoxicity on THP‐1 (100, 20, 4 µM) (%) (THP-1 cells; 4 µM): −19%
Cytotoxicity on THP‐1 (100, 20, 4 µM) (%) (THP-1 cells; 20 µM): 98%
Cytotoxicity on THP‐1 (100, 20, 4 µM) (%) (THP-1 cells; 100 µM): 89%
SI (Selectivity index = CC50/IC50) (THP-1 cells): 10.7
CC50 at 72 h [4]: 18.1 µM

c1ccc2c(Cc3c[nH]c4ccccc34)c[nH]c2c1 [DIM, 3,3′‐Diindolylmethane]
IC50 [5]: 1.2 µM

O=[N+]([O-])c1ccc(C(c2c[nH]c3ccc(I)cc23)c2c[nH]c3ccc(I)cc23)cc1 [II]
IC50 (L. donovani): < 10 µM

Clc1ccc(CNCC(c2c[nH]c3cc(Br)ccc23)c2c[nH]c3cc(Br)ccc23)cc1 [I]
CC50 [6]: 11.7 µM
IC50 [1]: 2.7 µM

CCOC(=O)c1c(C(=O)OC)cn(CC(c2cn(C)c3ccccc23)c2cn(C)c3ccccc23)c1C [URB1483]
Cytotoxicity in mammalian cells (mammalian cells): no quantifiable cytotoxicity
Outcome of in vivo studies (Leishmania infection): failed
IC50 [1]: 3.7 µM
Water solubility [7]: poor

Reference: article PMC12319374, “Efficient and Rapid Arylation of NH₂‐Unprotected Bromobisindole Ethanamines via Suzuki‐Miyaura Coupling: Generating New Leads Against Leishmania” (Chemistry (Weinheim an Der Bergstrasse, Germany), 2025)
